In brackets after ≈: the same amount, converted by molar mass. Activity calls are given as the source filed them. No cut-off for these calls is given here.
How the values were obtained:
[1] = tested on: Staphylococcus epidermidis; test: (§1) Antibiofilm activity against Staphylococcus epidermidis ATCC 35984 assessed as 12 hrs pre-established supernatant viable cell count at 0.16 umol/mesh after 20 hrs by […] using compound impregnated in polypropylene mesh (Rvb =7.7 x 10^8 CFU/ml); assay type: functional
[2] = tested on: Staphylococcus aureus; test: Antibiofilm activity against Staphylococcus aureus ATCC 35556 assessed as inhibition of 24 hrs pre-established biofilm formation at 0.064 umol/well after 20 hrs by safranin staining-based method; assay type: functional, organism-based
[3] = Induction of apoptosis in C57Bl/6 mouse BMDM cells assessed as viable cells at 160 uM by annexin V-FITC/DAPI staining-based flow cytometric analysis (reference value: 46.7%); assay type: functional; settings: C57BI/6, BMDM, read-out: Activity
[4] = Induction of apoptosis in C57Bl/6 mouse BMDM cells assessed as early apoptotic cells at 80 uM by annexin V-FITC/DAPI staining-based flow cytometric analysis (reference value: 0.49%); assay type: functional, C57BI/6
[5] = tested on: Staphylococcus epidermidis; test: (§2) Antibiofilm activity against Staphylococcus epidermidis ATCC 35984 assessed as 12 hrs pre-established supernatant viable cell count at 0.08 umol/mesh after 20 hrs by […] using compound impregnated in polypropylene mesh (Rvb =7.7 x 10^8 CFU/ml); assay type: functional
[6] = Induction of apoptosis in C57Bl/6 mouse BMDM cells assessed as dead cells at 20 uM by annexin V-FITC/DAPI staining-based flow cytometric analysis (reference value: 24.4%); assay type: functional, C57BI/6
[7] = tested on: Staphylococcus epidermidis; test: as §1, with “biofilm” for “supernatant”, “0.01” for “0.16”, “(reference value: 8.6” for “(Rvb =7.7”, “10^9” for “10^8”; assay type: functional
[8] = tested on: Staphylococcus epidermidis; test: Antibiofilm activity against Staphylococcus epidermidis ATCC 35984 assessed as 24 hrs pre-established biofilm viable cell count after 20 hrs (reference value: 1.4 x 10^10 +/- 2.6 x 10^9 CFU/ml); assay type: functional
[9] = tested on: Staphylococcus epidermidis; test: Antibiofilm activity against Staphylococcus epidermidis ATCC 35984 assessed as reduction in 12 hrs pre-established biofilm viable cell count at 0.16 umol after 20 hrs relative to control; assay type: functional
[10] = tested on: BMDM; test: Increase in IL-1beta production in C57Bl/6 mouse BMDM cells at 20 uM pretreated for 1 hr prior to ATP-stimulation by ELISA; assay type: functional, cell-based; settings: C57BI/6
[11] = tested on: BMDM; test: Increase in IL-1beta production in C57Bl/6 mouse BMDM cells at 2.5 to 80 uM pretreated for 1 hr prior to ATP-stimulation by ELISA; assay type: functional, cell-based; settings: C57BI/6
[12] = tested on: Staphylococcus epidermidis; test: Antibiofilm activity against Staphylococcus epidermidis ATCC 35984 assessed as inhibition of 12 hrs pre-established biofilm formation at 0.16 umol after 20 hrs by safranin staining-based UV-visible spectroscopic analysis using compound impregnated in polypropylene mesh; assay type: functional, organism-based
[13] = Induction of apoptosis in C57Bl/6 mouse BMDM cells assessed as late apoptotic cells at 20 uM by annexin V-FITC/DAPI staining-based flow cytometric analysis (reference value: 28.4%); assay type: functional, C57BI/6
[14] = tested on: Staphylococcus epidermidis; test: Antibiofilm activity against Staphylococcus epidermidis ATCC 35984 assessed as reduction in 12 hrs pre-established biofilm viable cell count after 20 hrs (reference value: 1.2 x 10^10 CFU/ml); assay type: functional
[15] = tested on: Staphylococcus aureus; test: Antibacterial activity against Staphylococcus aureus ATCC 29213 incubated overnight by broth microdilution method; assay type: functional
[16] = Induction of apoptosis in C57Bl/6 mouse BMDM cells assessed as late apoptotic cells at 160 uM by annexin V-FITC/DAPI staining-based flow cytometric analysis (reference value: 28.4%); assay type: functional, C57BI/6
[17] = tested on: Staphylococcus epidermidis; test: Antibiofilm activity against Staphylococcus epidermidis ATCC 35984 assessed as inhibition of 12 hrs pre-established biofilm formation after 20 hrs by safranin staining-based UV-visible spectroscopic analysis using compound impregnated in polypropylene mesh; assay type: functional, organism-based
[18] = tested on: Staphylococcus epidermidis; test: Antibiofilm activity against Staphylococcus epidermidis ATCC 35984 assessed as reduction in 24 hrs pre-established biofilm viable cell count after 20 hrs (reference value: 1.4 x 10^10 +/- 2.6 x 10^9 CFU/ml); assay type: functional
[19] = Induction of apoptosis in C57Bl/6 mouse BMDM cells assessed as dead cells at 2.5 uM by annexin V-FITC/DAPI staining-based flow cytometric analysis (reference value: 24.4%); assay type: functional, C57BI/6
[20] = Induction of apoptosis in C57Bl/6 mouse BMDM cells assessed as dead cells at 80 uM by annexin V-FITC/DAPI staining-based flow cytometric analysis (reference value: 24.4%); assay type: functional, C57BI/6
[21] = Induction of apoptosis in C57Bl/6 mouse BMDM cells assessed as viable cells at 20 uM by annexin V-FITC/DAPI staining-based flow cytometric analysis (reference value: 46.7%); assay type: functional; settings: C57BI/6, BMDM, read-out: Activity
[22] = Induction of apoptosis in C57Bl/6 mouse BMDM cells assessed as early apoptotic cells at 160 uM by annexin V-FITC/DAPI staining-based flow cytometric analysis (reference value: 0.49%); assay type: functional, C57BI/6
[23] = tested on: Staphylococcus epidermidis; test: Antibiofilm activity against Staphylococcus epidermidis ATCC 35984 assessed as 6 hrs pre-established biofilm viable cell count after 20 hrs (reference value: 8.3 x 10^9 CFU/ml); assay type: functional
[24] = tested on: Staphylococcus epidermidis; test: as §2, with “biofilm” for “supernatant”, “(reference value: 8.6” for “(Rvb =7.7”, “10^9” for “10^8”; assay type: functional
[25] = tested on: BMDM; test: Inhibition of IL-6 production in C57Bl/6 mouse BMDM cells at 10 uM pretreated prior to LPS-stimulation measured on day 7 by ELISA; assay type: functional, cell-based; settings: C57BI/6
[26] = tested on: Staphylococcus aureus; test: Antibacterial activity against Staphylococcus aureus ATCC 35556 incubated overnight by broth microdilution method; assay type: functional
[27] = Induction of apoptosis in C57Bl/6 mouse BMDM cells assessed as viable cells at 80 uM by annexin V-FITC/DAPI staining-based flow cytometric analysis (reference value: 46.7%); assay type: functional; settings: C57BI/6, BMDM, read-out: Activity

In the case of `CC(C)=CCC[C@H](C)[C@@H]1CC[C@@H](C)c2c(O)cc(C(=O)O)cc21`, the Activity [1] is reported as 9 ×10³ CFU/ml, the inhibition [2] is reported as “Active” and the viability at 160 µM [3] is reported as 53%. The Activity [4] was 0.81%, the Activity [5] was 4.4 ×10⁴ CFU/ml and the Activity [6] was 6.76%. For the same compound, the Activity [7] was 1.6 ×10⁹ CFU/ml, the Activity [8] was 4.2 ×10⁸ CFU/ml and the Activity [9] was 5 log10CFU/ml. The Activity [10] was “inactive”, the Activity [11] was “inactive” and the inhibition [12] was “Active”. It also gave an Activity [13] of 27%, an Activity [14] of 7 log10CFU/ml and an MBC [15] of 82 µM (≈ 25.9 µg/mL). The MIC [15] was 82 µM (≈ 25.9 µg/mL), the Activity [16] was 3.88% and the inhibition [17] was “Dose-dependent effect”. For the same compound, the Activity [18] was 2 log10CFU/ml, the Activity [19] was 13.3% and the Activity [20] was 23.9%. For the same compound, the viability at 20 µM [21] was 62.2%, the Activity [22] was 42.5% and the Activity [23] was 0 CFU/ml. The Activity [24] was 2.7 ×10⁵ CFU/ml, the inhibition [25] was “inactive” and the MBC [26] was 41 µM (≈ 13 µg/mL). For the same compound, the MIC [26] was 41 µM (≈ 13 µg/mL) and the viability at 80 µM [27] was 31%.
